Source: US8053453B2, “Pyrazolone compounds and thrombopoietin receptor activator” (Nissan Chemical Industries, Ltd., priority 2002, dated 2011)
Like-named read-outs stand apart in the source and are kept apart here.

Biological target: T1, human TPO receptor (Homo sapiens, UniProt P40238)
T1 construct: expressed in transfected cells
T1 sequence (P40238 26-635): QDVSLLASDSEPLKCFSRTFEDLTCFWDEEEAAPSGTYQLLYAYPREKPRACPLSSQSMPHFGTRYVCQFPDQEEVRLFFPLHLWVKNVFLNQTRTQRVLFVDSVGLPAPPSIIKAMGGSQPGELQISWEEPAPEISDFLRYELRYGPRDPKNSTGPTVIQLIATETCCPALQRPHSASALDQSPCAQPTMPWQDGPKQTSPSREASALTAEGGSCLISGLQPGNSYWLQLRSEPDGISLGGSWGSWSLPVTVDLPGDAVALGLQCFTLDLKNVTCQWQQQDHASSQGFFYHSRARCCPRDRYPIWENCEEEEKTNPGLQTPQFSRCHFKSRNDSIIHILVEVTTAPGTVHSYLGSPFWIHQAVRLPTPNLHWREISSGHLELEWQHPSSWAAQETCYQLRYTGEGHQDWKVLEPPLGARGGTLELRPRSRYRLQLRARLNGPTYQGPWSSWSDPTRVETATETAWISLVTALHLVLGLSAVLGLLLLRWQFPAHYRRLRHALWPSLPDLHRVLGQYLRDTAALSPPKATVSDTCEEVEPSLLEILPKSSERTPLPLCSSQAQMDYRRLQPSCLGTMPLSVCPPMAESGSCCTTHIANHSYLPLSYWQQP
Experiment: Proliferation of TPO-dependent cell line UT7/EPO-mpl, MTT method (Assay Examples 1, 3, 4)
Type: cell-based
Conditions: UT7/EPO-mpl cells; for EC50: concentration giving 50% of the maximum cell growth observed with the same compound; for Emax / Efficacy (%) (maximal growth rate): value in the presence of 10 ng/ml TPO taken as 100% standard, method of Assay Example 1; for Emax: read-out: Efficacy (%) (maximal growth rate)
Protocol: The reactivity of Synthetic Example 56, the compound of the present invention, with thrombopoietin (TPO) receptor was assayed using a human leukemic cell line, UT7/EPO-mpl.
UT7/EPO-mpl is a stable transformed cell line obtained by introducing into human leukemic cell line UT7/EPO a vector that induces expression of human TPO receptor (c-mp1) under control of a cytomegaloviral promoter by the method of Takatoku et al. (J. Biol. Chem., 272:7259-7263 (1997)). […] These two cell lines were subcultured in Iscove's modified Dulbecco's medium (IMDM; GIBCO) containing 10% fetal bovine serum (FBS; TRACE SCIENTIFIC) using a CO2 incubator (5% CO2, 37° C.).
The subcultured cells described above were washed twice with phosphate buffered saline (PBS) and suspended in IMDM containing 10% FBS at a cell density of 6×10^4 cells/ml. The cell suspension was transferred to a 96-well tissue culture plate (CORNING) in 100-μl aliquots. Then either TPO (PeproTech EC) or Synthetic Example 56 dissolved in dimethylsulfoxide (DMSO) was diluted 83-fold with IMDM containing 10% FBS and added to the aforementioned cell suspension in 20-μl aliquots. The suspension was incubated in a CO2 incubator (5% CO2, 37° C.) for 4 days. Cell proliferation was assayed according to the method of Mosmann et al. (J. Immunol. Methods, 65:55-63 (1983)). A 10-μl aliquot of 5 mg/ml MTT reagent (SIGMA) was added to each well of the tissue culture plate and the plate was incubated at 37° C. for 4 h. The formazan pigment generated was dissolved by adding 150 μl per well of 0.1 M HCl/isopropanol solution and the absorbance of the resulting pigment solution was measured at 550 nm with a 96-well microplate reader (BIO-RAD, M450).
The following Synthetic Examples were tested according to the method of Assay Example 1 to determine the maximal growth rate (efficacy), expressed by taking the value with human leukemic cell line UT7/EPO-mpl observed in the presence of 10 ng/ml TPO as 100% standard, and the concentration of each compound that yields a growth rate corresponding to 50% of the maximum cell growth observed with the same compound (EC50).
Synthetic Example 56, the compound of the present invention, and four compounds (Reference Synthetic Examples 1 to 4) described in a publication of international patent application (Publication No. WO01/34585, applied by SmithKline Beecham Corp.) were tested according to the method of Assay Example 1.

[1] = read-out: EC50 (ng/ml) (converted)

| Structure (SMILES) | EC50 [1] [nM] | Emax [%] | EC50 [ng/mL] | Efficacy (%) (maximal growth rate) |
| --- | --- | --- | --- | --- |
| COC(=O)c1ccc(C(=O)NNC(C)=C2C(=O)N(c3ccc(C)c(C)c3)N=C2C)cc1 [compound 6] | 17.6 | 64 |  |  |
| CC1=NN(c2ccc(C(C)(C)C)cc2)C(=O)C1=C(C)NNC(=O)c1cc(O)cc(O)c1 [compound 2] |  |  | 6.3 | 89 |
| CC1=NN(c2ccccc2)C(=O)C1=C(C)NNC(=O)c1ccc(O)cc1O [compound 19] |  |  | 14 | 100 |
| CC1=NN(c2ccc(I)cc2)C(=O)C1=C(C)NNC(=O)c1cccc([N+](=O)[O-])c1 [compound 43] |  |  | 83 | 87 |
| CC1=NN(c2ccc(C)c(C)c2)C(=O)C1=C(C)NNC(=O)c1ccc(C(=O)O)cc1 [compound 7] |  |  | 2.2 | 99 |
| CC1=NN(c2ccc(C(F)(F)F)cc2)C(=O)C1=C(C)NNC(=O)c1ccc(O)cc1 [compound 31] |  |  | 5.2 | 63 |
| CC1=NN(c2ccc(C(C)(C)C)cc2)C(=O)C1=C(C)NNC(=O)c1ccc([N+](=O)[O-])cc1 [compound 29] |  |  | 230 | 67 |
| CC1=NN(c2ccc(C(C)(C)C)cc2)C(=O)C1=C(C)NNC(=O)c1cccc([N+](=O)[O-])c1 [compound 15] |  |  | 23 | 109 |
| CC1=NN(c2ccc(I)cc2)C(=O)C1=C(C)NNC(=O)c1ccc(O)cc1 [compound 39] |  |  | 28 | 97 |
| CC1=NN(c2ccc(C(F)(F)F)cc2)C(=O)C1=C(C)NNC(=O)c1cccc([N+](=O)[O-])c1 [compound 36] |  |  | 59 | 97 |
| CC1=NN(c2ccc(C(C)(C)C)cc2)C(=O)C1=C(C)NNC(=O)c1cccc(O)c1 [compound 81] |  |  | 7.2 | 84 |
| CC1=NN(c2ccc(C(F)(F)F)cc2)C(=O)C1=C(C)NNC(=O)c1ccccc1[N+](=O)[O-] [compound 35] |  |  | 34 | 99 |
| CC1=NN(c2cccc(C(F)(F)F)c2)C(=O)C1=C(C)NNC(=O)c1ccc([N+](=O)[O-])cc1 [compound 52] | 268 | 22 |  |  |
| CC1=NN(c2ccc(I)cc2)C(=O)C1=C(C)NNC(=O)c1ccc(O)c(O)c1 [compound 41] |  |  | 32 | 115 |
| CC1=NN(c2ccc(C(C)(C)C)cc2)C(=O)C1=C(C)NNC(=O)c1ccc(C(F)(F)F)cc1 [compound 71] |  |  | 69 | 89 |
| CC1=NN(c2ccc(Cl)c(Cl)c2)C(=O)C1=C(C)NNC(=O)c1ccc(O)cc1O [compound 64] |  |  | 7.7 | 74 |
| Cc1ccc(-n2nc(C)c(C=NN3C(=O)C(=Cc4ccc(C(=O)O)cc4)SC3=S)c2O)cc1C [Reference Synthetic Example 1, 5-(4-carboxybenzylidene)-3-[(1-{3,4-dimethylphenyl}-5-hydroxy-3-methyl-1H-pyrazol-4-ylmethylene)amino]-2-thioxothiazolidin-4-one, reference compound] |  | 7 |  |  |

| Structure (SMILES) | EC50 [1] [nM] | Emax [%] | EC50 [ng/mL] | Efficacy (%) (maximal growth rate) |
| --- | --- | --- | --- | --- |
| CC1=NN(c2ccc(I)cc2)C(=O)C1=C(C)NNC(=O)c1ccc([N+](=O)[O-])cc1 [compound 44] |  |  | 250 | 26 |
| CC1=NN(c2ccc(C(C)(C)C)cc2)C(=O)C1=C(C)NNC(=O)c1ccc(N)cc1 [compound 69] |  |  | 5.7 | 89 |
| CC1=NN(c2cccc([N+](=O)[O-])c2)C(=O)C1=C(C)NNC(=O)c1ccc(O)cc1O [compound 86] |  |  | 21 | 105 |
| CC1=NN(c2ccc(C(F)(F)F)cc2)C(=O)C1=C(C)NNC(=O)c1ccc(O)cc1O [compound 33] |  |  | 1.1 | 96 |
| CC1=NN(c2ccc(C(F)(F)F)cc2)C(=O)C1=C(C)NNC(=O)c1ccc(O)c(O)c1 [compound 34] |  |  | 5.2 | 99 |
| CC1=NN(c2ccc(C(C)(C)C)cc2)C(=O)C1=C(C)NNC(=O)c1cccc(N)c1 [compound 70] |  |  | 23 | 87 |
| CC1=NN(c2cccc(C(F)(F)F)c2)C(=O)C1=C(C)NNC(=O)c1cccc(N)c1 [compound 89] |  |  | 39 | 68 |
| CC1=NN(c2cccc(C(F)(F)F)c2)C(=O)C1=C(C)NNC(=O)c1ccc(C(=O)O)cc1 [compound 9] |  |  | 5.1 | 90 |
| CC1=NN(c2ccc(C(C)(C)C)cc2)C(=O)C1=C(C)NNC(=O)c1cccc(C(=O)O)c1 [compound 12] |  |  | 76 | 100 |
| CC1=NN(c2ccc(C(F)(F)F)cc2)C(=O)C1=C(C)NNC(=O)c1cc2ccccc2cc1O [compound 32] |  |  | 37 | 90 |
| CC1=NN(c2ccc(I)cc2)C(=O)C1=C(C)NNC(=O)c1cc2ccccc2cc1O [compound 40] |  |  | 250 | 37 |
| CC1=NN(c2ccc(C(C)(C)C)cc2)C(=O)C1=C(C)NNC(=O)c1ccccc1O [compound 23] |  |  | 28 | 129 |
| CC1=NN(c2ccc(Cl)c(Cl)c2)C(=O)C1=C(C)NNC(=O)c1cccc([N+](=O)[O-])c1 [compound 67] |  |  | 33 | 80 |
| CC1=NN(c2cccc(C(F)(F)F)c2)C(=O)C1=C(C)NNC(=O)c1cc2ccccc2cc1O [compound 47] |  |  | 190 | 48 |
| CC1=NN(c2ccc(C(F)(F)F)cc2)C(=O)C1=C(C)NNC(=O)c1cccc(N)c1 [compound 91] |  |  | 24 | 81 |
| CC1=NN(c2cccc(C(F)(F)F)c2)C(=O)C1=C(C)NNC(=O)c1ccccc1[N+](=O)[O-] [compound 50] |  |  | 37 | 89 |
| CC1=NN(c2ccc(Cl)c(Cl)c2)C(=O)C1=C(C)NNC(=O)c1ccc(N)cc1 [compound 77] |  |  | 5.1 | 78 |
